# According to ChEMBL document CHEMBL1126470, “Toward developing peptidomimetics: Successful replacement of backbone amide bonds in tetrapeptide-based CCK-A receptor agonists” (Bioorg Med Chem Lett, 1993):
# Experiments:
# [1] = molecular target: T1, Cholecystokinin receptor type A (Cavia porcellus, UniProt Q63931); assay: Displacement of [125I]Bolton-Hunter-CCK-8 from guinea pig pancreas Cholecystokinin type A receptor
# T1 sequence (Q63931 whole entry): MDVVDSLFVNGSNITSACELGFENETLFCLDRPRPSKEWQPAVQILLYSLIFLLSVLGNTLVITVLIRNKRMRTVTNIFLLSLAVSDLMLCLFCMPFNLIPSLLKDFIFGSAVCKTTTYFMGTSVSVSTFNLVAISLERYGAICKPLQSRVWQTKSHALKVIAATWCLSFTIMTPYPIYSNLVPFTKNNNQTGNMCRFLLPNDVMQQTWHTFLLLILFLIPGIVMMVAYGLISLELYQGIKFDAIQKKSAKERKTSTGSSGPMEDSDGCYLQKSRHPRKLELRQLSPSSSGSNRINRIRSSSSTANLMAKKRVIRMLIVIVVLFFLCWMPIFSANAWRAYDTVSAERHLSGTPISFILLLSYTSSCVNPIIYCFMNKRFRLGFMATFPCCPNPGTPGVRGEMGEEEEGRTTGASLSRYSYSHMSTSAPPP
# Cavia porcellus = organism: Cavia porcellus; assay: Compound was evaluated for its ability to stimulate PI hydrolysis in guinea pig pancreas relative to maximal response elicited by CCK-8; format: functional
SMILES,IC50 [1] [nM],Max response (Cavia porcellus) [%]
Cc1ccccc1NC(=O)NCCCC[C@H](NC(=O)[C@H](Cc1c[nH]c2ccccc12)NC(=O)OC(C)(C)C)C(=O)N[C@H](CNN[C@@H](Cc1ccccc1)C(N)=O)CC(=O)O,300,6.3
Cc1ccccc1NC(=O)NCCCC[C@@H](CNN[C@@H](CC(=O)O)C(=O)N(C)[C@@H](Cc1ccccc1)C(N)=O)NC(=O)[C@H](Cc1c[nH]c2ccccc12)NC(=O)OC(C)(C)C,1600,0
CC(C)(C)OC(=O)N[C@H](CNN[C@@H](CCCCNC(=O)/C=C/c1ccc(O)cc1)C(=O)N[C@@H](CC(=O)O)C(=O)N[C@@H](Cc1ccccc1)C(N)=O)Cc1c[nH]c2ccccc12,930,5.6
CSCC[C@H](NC(=O)[C@H](Cc1ccc(OS(=O)(=O)O)cc1)NC(=O)[C@@H](N)CC(=O)O)C(=O)NCC(=O)N[C@@H](Cc1c[nH]c2ccccc12)C(=O)N[C@@H](CCSC)C(=O)N[C@@H](CC(=O)O)C(=O)N[C@@H](Cc1ccccc1)C(N)=O [SINCALIDE],,100
CSCC[C@H](NC(=O)[C@H](Cc1c[nH]c2ccccc12)NC(=O)OC(C)(C)C)C(=O)N[C@@H](CC(=O)O)C(=O)N[C@@H](Cc1ccccc1)C(N)=O,,100
Cc1ccccc1NC(=O)NCCCC[C@H](NNC[C@H](Cc1c[nH]c2ccccc12)NC(=O)OC(C)(C)C)C(=O)N[C@@H](CC(=O)O)C(=O)N[C@@H](Cc1ccccc1)C(N)=O,470,8.9

# Further compounds by falling IC50 [1], results first:
IC50 [1] [nM],SMILES,Max response (Cavia porcellus) [%]
250,CN(C(=O)[C@H](CC(=O)O)NNC[C@H](CCCCNC(=O)/C=C\c1ccc(O)cc1)NC(=O)[C@H](Cc1c[nH]c2ccccc12)NC(=O)OC(C)(C)C)[C@@H](Cc1ccccc1)C(N)=O,28
130,CC(C)(C)OC(=O)N[C@@H](Cc1c[nH]c2ccccc12)C(=O)N[C@@H](CCCCNC(=O)/C=C\c1ccc(O)cc1)C(=O)N[C@H](CNN[C@@H](Cc1ccccc1)C(N)=O)CC(=O)O,0
40,CC(C)(C)OC(=O)N[C@@H](Cc1c[nH]c2ccccc12)C(=O)N[C@@H](CCCCNC(=O)/C=C\c1ccc(O)cc1)CNN[C@@H](CC(=O)O)C(=O)N[C@@H](Cc1ccccc1)C(N)=O,44
